This is an account of results in patent publication US9782398B2, “Pharmaceutical compositions comprising an antipsychotic drug and a VMAT2 inhibitor and uses thereof” (NEUROCRINE BIOSCIENCES, INC., priority 2014, dated 2017).

“Also recorded” adds a separate entry of the source.

The assay has as its system Male Wistar rats. Briefly: Conditioned avoidance response (CAR) test of antipsychotic activity. In kind it is in vivo, rat. Conditions: for ED50: Rattus norvegicus, ip, read-out: ED50 (escape response), dose required to produce 50% of the maximum response; for dose of compound required to produce 5 escapes / dose of compound required to produce 8 escapes: from fitted line. The text has this: In the CAR paradigm, a rat is trained in a two chamber shuttle box to respond to a conditioned stimulus (auditory) by negative reinforcement. If the animal fails to move to the other chamber upon presentation of an auditory stimulus, a mild foot shock is applied to the side where the rat is located. The rat learns to avoid the mild foot shock by moving to the other chamber upon initiation of the auditory signal, termed a conditioned avoidance response. Crossing to the other chamber during administration of the shock is termed an escape response. If a rat fails to move to the other chamber even upon administration of the foot shock, the rat is considered to have an escape failure.
Rats were trained every day for 3 to 4 weeks. In the training session, rats were placed in the CAR two-way shuttle box and the training period of 20 trials ensued. A trial consisted of a 10-sec presentation of an 80 dB white noise followed by a scrambled 0.6 mA foot shock lasting up to 20 sec. The inter-trial interval ranged from 20-60 sec. The rat learned to avoid shock by moving from one compartment to the other when the conditioned stimulus was presented (a conditioned avoidance response). A rat was deemed sufficiently trained if it avoided the shock when presented with the conditioned stimulus at least 19 times out of the 20 trials.
On test day, trained animals were acclimated in the test room for 30 minutes prior to testing. They were then dosed with compound and placed in the CAR two-way shuttle box. In the test, 20 trials were performed on each rat. In each trial the conditioned stimulus was applied (10-sec presentation of 80 dB white noise), followed by the foot shock (a scrambled 0.6 mA foot shock lasting up to 20 sec). If the animal moved to the other chamber on presentation of the conditioned stimulus, it was scored as a conditioned avoidance response. If it moved upon presentation of the foot shock, it was scored as an escape. […] Antipsychotic efficacy is evident by an increase in the number of escapes. Data were analyzed by analysis of variance (ANOVA) followed by post-hoc comparisons with the Bonferroni Test when appropriate. An effect is considered significant if p<0.05. Outliers defined as two standard deviations above or below the mean were detected and were removed from all analysis. Results are reported as mean±SEM for number of escapes.
Animals: Male Wistar rats from Harlan (Indianapolis, Ind.) were used in the study. Upon receipt, rats were assigned unique identification numbers and were group housed with 3 rats per cage in polycarbonate cages with micro-isolator filter tops. All rats were examined, handled, and weighed prior to initiation of the study to assure adequate health and suitability. The rats were maintained at 12/12 light/dark cycle with lights on at 6:00 A.M. The room temperature was maintained between 20 and 23° C. with a relative humidity maintained around 50%. Chow and water were provided ad libitum for the duration of the study. For each test, animals were randomly assigned across treatment groups. Each treatment group contained 10 animals at time of testing.
Test Compounds: Risperidone (0.03, 0.1, 0.3, and 1 mg/kg) was dissolved in 10% DMSO and administered i.p. 30 min prior to testing at a dose volume of 1 ml/kg. […] The vehicle control group received 10% DMSO (i.p., 30 min pretreatment, 1 ml/kg) immediately followed by administration of sterile water (p.o., 1 ml/kg).
Test Compounds: Olanzapine (0.3, 0.6, 1 and 3 mg/kg) was dissolved in 10% DMSO and administered i.p. 30 min prior to testing at a dose volume of 1 ml/kg.
10% DMSO (i.p., 30 min pretreatment, 1 ml/kg) immediately followed by administration of sterile water (p.o., 1 ml/kg) was used as the vehicle control group.
Test Compounds: Risperidone (0.1, 0.3, and 1 mg/kg) was dissolved in 10% DMSO and administered i.p. 30 min prior to testing at a dose volume of 1 ml/kg.

The mark [1] stands for this setting: combination with R,R,R-DHTBZ 0.15 mg/kg vs olanzapine singly, rat.
The mark [2] stands for this setting: olanzapine i.p. administered singly, rat.
Where [3] appears, read: combination with Compound 5-1 0.3 mg/kg vs risperidone singly, rat.
The mark [4] stands for this setting: combination with R,R,R-DHTBZ 0.15 mg/kg vs risperidone singly, rat.
Setting [5] is: risperidone i.p. administered singly, rat.

`COc1cc2c(cc1OC)[C@H]1C[C@@H](CO)[C@H](CC(C)C)CN1CC2` [Compound 5-1, [(2R,3S,11bR)-9,10-Dimethoxy-3-(2-methylpropyl)-1H,2H,3H,4H,6H,7H,11bH-pyrido[2,1-a]isoquinolin-2-yl]methanol]: under “Compound 5-1 0.3 mg/kg p.o. administered singly, 60 min prior to testing, rat, 0.3 mg/kg”, the “number of escapes compared to vehicle” value was “did not result in changes from the vehicle results; also recorded: showed no antipsychotic activity; also recorded: did not increase”.
For `COc1cc2c(cc1OC)[C@H]1C[C@@H](O)[C@H](CC(C)C)CN1CC2` [R,R,R-DHTBZ, (2R,3R,11bR)-3-isobutyl-9,10-dimethoxy-1,3,4,6,7,11b-hexahydro-2H-pyrido[2,1-a]isoquinolin-2-ol], the “number of escapes compared to vehicle” value (R,R,R-DHTBZ 0.15 mg/kg p.o. administered singly, 30 min prior to testing, rat) is reported as “did not increase; also recorded: did not result in changes from the vehicle results” and the “number of escapes compared to vehicle” value (R,R,R-DHTBZ 0.15 mg/kg p.o. administered singly, 30 min prior to testing, rat, listed as R,R,R DHTBZ) is reported as “showed no antipsychotic activity”.
Usually ED50 stands for the dose at which the effect has come halfway, by size or by number of responders. Regarding `Cc1cc2c(s1)Nc1ccccc1N=C2N1CCN(C)CC1` [olanzapine], the ED50 is 1.2 mg/kg. Also, the “reduction of the olanzapine dose” value (combination with Compound 5-1 0.3 mg/kg vs olanzapine singly, rat) was found to be 80%. For the same compound, under setting [1], the “decrease of ED50 of olanzapine” value is listed as “approximately 2 fold” and the “reduction of the olanzapine dose” value worked out at 50%. In addition, under setting [2], the “dose necessary to show antipsychotic efficacy in the CAR paradigm” value is 1 mg/kg and the “dose of compound required to produce 5 escapes” value was 0.93 mg/kg. The “dose of compound required to produce 5 escapes” value (olanzapine i.p. in combination with Compound 5-1 0.3 mg/kg p.o., rat) is 0.18 mg/kg. The “dose of olanzapine resulting in antipsychotic activity” value (olanzapine i.p. with addition of Compound 5-1 0.3 mg/kg p.o., rat) came to 0.6 mg/kg. The “dose of olanzapine resulting in antipsychotic activity” value (olanzapine i.p. with addition of R,R,R-DHTBZ 0.15 mg/kg p.o., rat) is reported as 0.6 mg/kg.
Turning to `Cc1nc2n(c(=O)c1CCN1CCC(c3noc4cc(F)ccc34)CC1)CCCC2` [risperidone], the ED50 stood at 0.14 mg/kg. Under setting [3], the “decrease of risperidone dose required to produce 8 escapes” value was “approximately 7 fold” and the “reduction of the risperidone dose” value stood at 86%. Further, under setting [4], the “decrease of ED50 of risperidone” value was “approximately 6 fold” and the “reduction of the risperidone dose” value turned out to be 83%. Moreover, the “number of escapes compared to vehicle” value (risperidone 0.1 mg/kg i.p. administered singly, 30 min prior to testing, rat) is “did not result in changes from the vehicle results; also recorded: did not increase”. Also, under setting [5], the “dose necessary to show antipsychotic efficacy in the CAR paradigm” value is listed as 0.3 mg/kg and the “dose of compound required to produce 8 escapes” value came to 0.26 mg/kg. The “dose of compound required to produce 8 escapes” value (risperidone i.p. in combination with Compound 5-1 0.3 mg/kg p.o., rat) was found to be 0.038 mg/kg. Also, the “doses of risperidone resulting in antipsychotic activity” value (risperidone i.p. with addition of Compound 5-1 0.3 mg/kg p.o., rat) was 0.1 mg/kg.
